In the test the target is Melanocortin receptor 4 (Mus musculus, UniProt P56450). Description: ChEBML_104255. From the text: Agonistic activity evaluated at melanocortin 4 receptor (MC4R) of mouse HEK293 cells

Each structure is given as a SMILES string.

In BindingDB's records for doi:10.1016/j.bmcl.2003.08.078 (University of Florida, 2003) one finds EC50 data, which are given here for one compound.

The term EC50 denotes the concentration needed to bring the measured effect to its halfway point. Lower therefore signals greater potency.

Sequence of Melanocortin receptor 4 (P56450 whole entry): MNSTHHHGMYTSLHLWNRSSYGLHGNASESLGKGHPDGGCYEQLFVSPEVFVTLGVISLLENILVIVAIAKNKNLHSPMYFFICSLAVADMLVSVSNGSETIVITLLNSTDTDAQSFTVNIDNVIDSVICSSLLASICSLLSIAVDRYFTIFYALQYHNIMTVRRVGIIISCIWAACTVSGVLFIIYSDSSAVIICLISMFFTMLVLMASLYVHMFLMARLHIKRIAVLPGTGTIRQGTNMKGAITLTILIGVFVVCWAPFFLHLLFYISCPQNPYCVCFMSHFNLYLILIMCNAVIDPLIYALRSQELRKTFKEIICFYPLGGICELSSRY

`CC(=O)N[C@@H](Cc1cnc[nH]1)C(=O)N[C@H](Cc1ccccc1)C(=O)N[C@@H](CCCN=C(N)N)C(=O)N[C@@H](Cc1c[nH]c2ccccc12)C(N)=O` [(S)-2-{(R)-2-[(S)-2-Acetylamino-3-(1H-imidazol-4-yl)-propionylamino]-3-phenyl-propionylamino}-5-guanidino-pentanoic acid [(S)-1-carbamoyl-2-(1H-indol-3-yl)-ethyl]-amide] had an EC50 of 17 nM.
